# Article PMC8312610, “F4, a collagen XIX-derived peptide, inhibits tumor angiogenesis through αvβ3 and α5β1 integrin interaction” (Cell Adhesion & Migration, 2021)
# Positions of bridges follow the written chain, without caps; N, C: chain ends. No end group written: not given here.
# How the values were obtained:
# α5β1 integrin = assay: F4 affinity chromatography of HUVEC extracts with western blot; type: binding, human; conditions: HUVEC protein extract, F4 peptide-Sepharose (F4 reduced with DTT), NaCl elution 0.15, 0.6 and 1.0 M, +4°C, N = 2
# Procedure: (§1) HUVEC were cultured as previously described in a Nunclon® 150 cm^2 flask. At 80%-confluence, cells were washed with HBSS and scrapped in lysis buffer (RIPA buffer, Sigma, ref R0278-50ML) supplemented with 1% (v/v) Halt Protease Inhibitor Cocktail (ThermoFisher, ref 78430). Cell lysates were incubated for 30 min at +4°C and vortexed every 5 min. Unsoluble debris were pelleted by centrifugation at 10,000 g for 10 min at +4°C. Bio-Rad Protein Assay (Bio-Rad, Marne-La-Coquette, France) was used to determine the protein concentrations according to the manufacturer’s instructions. […] HUVEC protein extracts were chromatographed at +4°C. Unbound protein were removed with 30 mL of washing buffer (10 mM Tris, 1 mM CaCl2, 1 mM MgCl2, pH 7.6, 1% (v/v) Protease Inhibitor Cocktail and 0.1% (w/v) octylglucoside (Sigma, ref O8001-100 MG)) according to the manufacturer’s instructions. Proteins bound to the affinity column were then eluted with elution buffer (10 mM Tris, pH 7.6, 1% (w/v) PIC and 0.1% (w/v) octylglucoside) supplemented with increasing concentrations of NaCl (0.15, 0.6 and 1 M). Absorbance was read at 280 nm to check protein elution and fractions corresponding to the different NaCl concentrations were pooled and concentrated using NanoSep Centrifugal Devices (cutoff 10 kDa; Pall). […]
# αvβ3 integrin = assay: as above; type: binding, human; conditions: HUVEC protein extract, F4 peptide-Sepharose (F4 reduced with DTT), NaCl elution 0.15, 0.6 and 1.0 M, +4°C, N = 2
# Procedure: as §1
sequence,measurement,setting,value
"CNPEDCLYPVSHAHQR (disulfide 1-6 (inferred)) [F4, collagen XIX-derived peptide, released by plasmin from type XIX collagen]",α5 and β1 subunits bound to F4 column (western blot),α5β1 integrin,two bands in 0.6 M NaCl eluted sample which matched the 140 and 120 kDa bands of the recombinant α5β1 integrin
same,αv and β3 subunits bound to F4 column (western blot),αvβ3 integrin,two bands which matched the 150 and 110 kDa bands of the recombinant αvβ3 integrin
